# Laboratory results taken from patent US10660856B2, “Porous silica gel as a carrier for liquid technologies” (W.R. Grace & Co.-Conn., priority 2013, dated 2020).
# Assays:
# Type in all cases: physicochemical
# [1] = Oil release (Tocopherol) from tablets, dissolution with HPLC; settings: at 45 min, from tablets of Tocopherol loaded silica S2, 100 mg Tocopherol per tablet
# Procedure: Oil Release (Tocopherol) from Tablets: The carrier materials used in the following trials was the material designated S2 in Example 1. Tocopherol was the liquid lipid that was loaded on to the silica. Silica S2 was loaded with liquid lipid pursuant to method of Example 8 and was used as the oil loaded carrier component in tablet. Tablets were prepared pursuant to the method in example 10. Tochopherol concentration in the tablet was 100 mg.
# Tablets prepared were subjected to dissolution studies pursuant to the method described in Example 8. An aliquot of 2 mL was withdrawn at predetermined time interval and filtered through 0.22μ membrane filter. The dissolution samples were analyzed by using HPLC (Waters UPLC Wavelength: 294 nm Column: Rocket Format, 53×7 mm, 3μ) Mobile Phase: 85% ACN: 10% MeOH: 5% H2O.)
# [2] = Oil or surfactant adsorption capacity on Sample S1 (ASTM D281 titration)
# Procedure: Procedure: 2 to 5 g (based on bulk density) of the solid carrier material was placed in a 100 ml beaker and the oil or surfactant was added drop wise from a Burette, while mixing with spatula according to ASTM […]. The addition of oil or surfactant was continued until a thick paste-like mass formation. The addition of oil or surfactant was stopped when the mass appeared to contain excess oil. The Burette reading was recorded when the mass contained no excess oil or surfactant. The adsorption capacity was calculated using the below equation: [formula]
# [3] = Specific gravity of oils and surfactants
# [4] = oil adsorbed on Sample S1 material
SMILES,Tocopherol release [1],"Adsorption capacity [2, 4] [g/100 g]","Specific gravity ([3]; oils, Table 2) [g/mL]",Adsorption capacity ([2]; surfactant adsorbed on Sample S1 material) [g/100 g],"Specific gravity ([3]; surfactants, Table 3) [g/mL]"
Cc1c(C)c2c(c(C)c1O)CCC(C)(CCCC(C)CCCC(C)CCCC(C)C)O2 (racemic) [dl-α-Tocopherol],≈ 100%,292,0.950,–,–
CCCCCCCC/C=C\CCCCCCCC(=O)O [Oleic acid],–,300,0.895,–,–
CCOCCOCCO [Transcutol HP],–,–,–,295,0.987
